This passage reports EC50 results from patent US11912686B2 (Gilead Sciences, Inc., priority 2020, dated 2024).

By EC50 is commonly meant the concentration at which the effect is half-maximal.

Chain of human LPAR1 (Q92633 whole entry): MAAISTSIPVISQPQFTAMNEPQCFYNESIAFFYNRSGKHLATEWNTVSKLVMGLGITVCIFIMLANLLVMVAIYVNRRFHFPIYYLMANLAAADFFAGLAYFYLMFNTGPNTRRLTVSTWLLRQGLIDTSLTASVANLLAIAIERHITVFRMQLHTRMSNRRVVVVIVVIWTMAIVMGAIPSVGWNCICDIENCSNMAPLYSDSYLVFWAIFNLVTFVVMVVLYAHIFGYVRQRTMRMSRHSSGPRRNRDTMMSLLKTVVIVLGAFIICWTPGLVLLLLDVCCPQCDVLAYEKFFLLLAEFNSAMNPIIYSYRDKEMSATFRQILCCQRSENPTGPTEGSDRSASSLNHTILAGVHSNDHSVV

This assay addresses human LPAR1 (Homo sapiens (Human), UniProt Q92633). In words: LPAR1 intracellular calcium mobilization assay (antagonist mode, FLIPR). Format: cell-based. The note with it: CHO-K1 EDG2 cells expressing human LPAR1, LPA 18:2 at EC80 (100 nM), test compound 0.5 nM to 10 μM.
`C[C@@H](OC(=O)Nc1c(-c2ccc(NC(=O)c3ccccc3)cn2)nnn1C)c1cccnc1Cl` [Compound 29, (R)-1-(2-chloropyridin-3-yl)ethyl (4-(5-benzamidopyridin-2-yl)-1-methyl-1H-1,2,3-triazol-5-yl)carbamate]: the EC50 is 261 nM.

On to `CCCC(=O)Nc1ccc(-c2nnn(C)c2NC(=O)O[C@H](C)c2cccnc2Cl)nc1` [Compound 30, (R)-1-(2-chloropyridin-3-yl)ethyl (4-(5-butyramidopyridin-2-yl)-1-methyl-1H-1,2,3-triazol-5-yl)carbamate], for which the EC50 turned out to be 516 nM. Under `COCC(=O)Nc1ccc(-c2nnn(C)c2NC(=O)O[C@H](C)c2cccnc2Cl)nc1` [Compound 31, (R)-1-(2-chloropyridin-3-yl)ethyl (4-(5-(2-methoxyacetamido)pyridin-2-yl)-1-methyl-1H-1,2,3-triazol-5-yl)carbamate] stands 2330 nM; under `C[C@@H](OC(=O)Nc1c(-c2ccc(NC(=O)C3(C)CC3)cn2)nnn1C)c1cccnc1Cl` [Compound 32, (R)-1-(2-chloropyridin-3-yl)ethyl (1-methyl-4-(5-(1-methylcyclopropane-1-carboxamido)pyridin-2-yl)-1H-1,2,3-triazol-5-yl)carbamate], 799 nM; under `CCC(=O)Nc1ccc(-c2nnn(C)c2NC(=O)O[C@H](C)c2cccnc2Cl)nc1` [Compound 33, (R)-1-(2-chloropyridin-3-yl)ethyl (1-methyl-4-(5-propionamidopyridin-2-yl)-1H-1,2,3-triazol-5-yl)carbamate], 1020 nM. Under `C[C@@H](OC(=O)Nc1c(-c2ccc(NC(=O)C3CC3)cn2)nnn1C)c1cccnc1Cl` [Compound 34, (R)-1-(2-chloropyridin-3-yl)ethyl (4-(5-(cyclopropanecarboxamido)pyridin-2-yl)-1-methyl-1H-1,2,3-triazol-5-yl)carbamate] stands 429 nM; under `C[C@@H](OC(=O)Nc1c(-c2ccc(NC(=O)C3CCC3)cn2)nnn1C)c1cccnc1Cl` [Compound 35, (R)-1-(2-chloropyridin-3-yl)ethyl (4-(5-(cyclobutanecarboxamido)pyridin-2-yl)-1-methyl-1H-1,2,3-triazol-5-yl)carbamate], 103 nM. With `C[C@@H](OC(=O)Nc1c(-c2ccc(NC(=O)C(F)F)cn2)nnn1C)c1cccnc1Cl` [Compound 36, (R)-1-(2-chloropyridin-3-yl)ethyl (4-(5-(2,2-difluoroacetamido)pyridin-2-yl)-1-methyl-1H-1,2,3-triazol-5-yl)carbamate] the figure was 112 nM; with `C[C@@H](OC(=O)Nc1c(-c2ccc(NC(=O)C3CC(F)(F)C3)cn2)nnn1C)c1cccnc1Cl` [Compound 37, (R)-1-(2-chloropyridin-3-yl)ethyl (4-(5-(3,3-difluorocyclobutane-1-carboxamido)pyridin-2-yl)-1-methyl-1H-1,2,3-triazol-5-yl)carbamate], 54.6 nM; with `C[C@@H](OC(=O)Nc1c(-c2ccc(NC(=O)C3CNC3)cn2)nnn1C)c1cccnc1Cl` [Compound 38, (R)-1-(2-chloropyridin-3-yl)ethyl (4-(5-(azetidine-3-carboxamido)pyridin-2-yl)-1-methyl-1H-1,2,3-triazol-5-yl)carbamate], 10000 nM.

Take `C[C@@H](OC(=O)Nc1c(-c2ccc(NC(=O)C3(C#N)CC3)cn2)nnn1C)c1cc(F)cnc1F` [Compound 39, (R)-1-(2,5-difluoropyridin-3-yl)ethyl (4-(5-(1-cyanocyclopropane-1-carboxamido)pyridin-2-yl)-1-methyl-1H-1,2,3-triazol-5-yl)carbamate]: the EC50 is 50.8 nM. Under `C[C@@H](OC(=O)Nc1c(-c2ccc(NC(=O)C3(Cl)CC3)cn2)nnn1C)c1cccnc1Cl` [Compound 40, (R)-1-(2-chloropyridin-3-yl)ethyl (4-(5-(1-chlorocyclopropane-1-carboxamido)pyridin-2-yl)-1-methyl-1H-1,2,3-triazol-5-yl)carbamate] stands 75.2 nM; under `C[C@@H](OC(=O)Nc1c(-c2ccc(NC(=O)C3CC4(C3)CC(F)(F)C4)cn2)nnn1C)c1cccnc1Cl` [Compound 41, (R)-1-(2-chloropyridin-3-yl)ethyl (4-(5-(6,6-difluorospiro[3.3]heptane-2-carboxamido)pyridin-2-yl)-1-methyl-1H-1,2,3-triazol-5-yl)carbamate], 38.1 nM; under `C[C@@H](OC(=O)Nc1c(-c2ccc(NC(=O)C3CC4(COC4)C3)cn2)nnn1C)c1cccnc1Cl` [Compound 42, (R)-1-(2-chloropyridin-3-yl)ethyl (4-(5-(2-oxaspiro[3.3]heptane-6-carboxamido)pyridin-2-yl)-1-methyl-1H-1,2,3-triazol-5-yl)carbamate], 201 nM. Under `C[C@@H](OC(=O)Nc1c(-c2ccc(NC(=O)C3CS(=O)(=O)C3)cn2)nnn1C)c1cccnc1Cl` [Compound 43, (R)-1-(2-chloropyridin-3-yl)ethyl (4-(5-(1,1-dioxidothietane-3-carboxamido)pyridin-2-yl)-1-methyl-1H-1,2,3-triazol-5-yl)carbamate] stands 497 nM; under `C[C@@H](OC(=O)Nc1c(-c2ccc(NC(=O)C34CC(C5COC5)(C3)C4)cn2)nnn1C)c1cccnc1Cl` [Compound 44, (R)-1-(2-chloropyridin-3-yl)ethyl (1-methyl-4-(5-(3-(oxetan-3-yl)bicyclo[1.1.1]pentane-1-carboxamido)pyridin-2-yl)-1H-1,2,3-triazol-5-yl)carbamate], 165 nM. For the compound `C[C@@H](OC(=O)Nc1c(-c2ccc(NC(=O)C34CC(C(F)F)(C3)C4)cn2)nnn1C)c1cccnc1Cl` [Compound 45, (R)-1-(2-chloropyridin-3-yl)ethyl (4-(5-(3-(difluoromethyl)bicyclo[1.1.1]pentane-1-carboxamido)pyridin-2-yl)-1-methyl-1H-1,2,3-triazol-5-yl)carbamate], the half-maximal effective concentration (EC50) was determined as 40.8 nM. Under `COC12CC(C(=O)Nc3ccc(-c4nnn(C)c4NC(=O)O[C@H](C)c4cccnc4Cl)nc3)(C1)C2` [Compound 46, (R)-1-(2-chloropyridin-3-yl)ethyl (4-(5-(3-methoxybicyclo[1.1.1]pentane-1-carboxamido)pyridin-2-yl)-1-methyl-1H-1,2,3-triazol-5-yl)carbamate] stands 29.7 nM. Turning to `C[C@@H](OC(=O)Nc1c(-c2ccc(NC(=O)C34CC(C)(C3)C4)cn2)nnn1C)c1cccnc1Cl` [Compound 47, (R)-1-(2-chloropyridin-3-yl)ethyl (1-methyl-4-(5-(3-methylbicyclo[1.1.1]pentane-1-carboxamido)pyridin-2-yl)-1H-1,2,3-triazol-5-yl)carbamate], the EC50 was 19.1 nM.

In the case of `C[C@@H](OC(=O)Nc1c(-c2ccc(NC(=O)C3(C(F)(F)F)CCC3)cn2)nnn1C)c1cccnc1Cl` [Compound 48, (R)-1-(2-chloropyridin-3-yl)ethyl (1-methyl-4-(5-(1-(trifluoromethyl)cyclobutane-1-carboxamido)pyridin-2-yl)-1H-1,2,3-triazol-5-yl)carbamate], the half-maximal effective concentration (EC50) was 22.8 nM. Under `C[C@@H](OC(=O)Nc1c(-c2ccc(NC(=O)C3CC3(C)C)cn2)nnn1C)c1cccnc1Cl` (stereo partly drawn) [Compound 49, (R)-1-(2-chloropyridin-3-yl)ethyl (4-(5-(2,2-dimethylcyclopropane-1-carboxamido)pyridin-2-yl)-1-methyl-1H-1,2,3-triazol-5-yl)carbamate] stands 353 nM. Under `C[C@@H](OC(=O)Nc1c(-c2ccc(NC(=O)[C@H]3C[C@@H]3C#N)cn2)nnn1C)c1cccnc1Cl` [Compound 50, (R)-1-(2-chloropyridin-3-yl)ethyl (4-(5-((1S,2S)-2-cyanocyclopropane-1-carboxamido)pyridin-2-yl)-1-methyl-1H-1,2,3-triazol-5-yl)carbamate] stands 1760 nM; under `C[C@@H](OC(=O)Nc1c(-c2ccc(NC(=O)[C@@H]3C[C@H]3C#N)cn2)nnn1C)c1cccnc1Cl` [Compound 51, (R)-1-(2-chloropyridin-3-yl)ethyl (4-(5-((1R,2R)-2-cyanocyclopropane-1-carboxamido)pyridin-2-yl)-1-methyl-1H-1,2,3-triazol-5-yl)carbamate], 88.7 nM; under `C[C@@H](OC(=O)Nc1c(-c2ccc(NC(=O)[C@H]3C[C@@H]3F)cn2)nnn1C)c1cccnc1Cl` [Compound 52, (R)-1-(2-chloropyridin-3-yl)ethyl (4-(5-((1R,2S)-2-fluorocyclopropane-1-carboxamido)pyridin-2-yl)-1-methyl-1H-1,2,3-triazol-5-yl)carbamate], 622 nM.

On to `C[C@@H](OC(=O)Nc1c(-c2ccc(NC(=O)[C@@H]3C[C@@H]3F)cn2)nnn1C)c1cccnc1Cl` [Compound 53, (R)-1-(2-chloropyridin-3-yl)ethyl (4-(5-((1S,2S)-2-fluorocyclopropane-1-carboxamido)pyridin-2-yl)-1-methyl-1H-1,2,3-triazol-5-yl)carbamate], for which the EC50 was determined as 1460 nM. With `C[C@@H](OC(=O)Nc1c(-c2ccc(NC(=O)C3CCO3)cn2)nnn1C)c1cccnc1Cl` (stereo partly drawn) [Compound 54, (R)-1-(2-chloropyridin-3-yl)ethyl (1-methyl-4-(5-(oxetane-2-carboxamido)pyridin-2-yl)-1H-1,2,3-triazol-5-yl)carbamate] the figure was 7860 nM; with `C[C@@H](OC(=O)Nc1c(-c2ccc(NC(=O)C3(C(F)(F)F)CC3)cn2)nnn1C)c1cccnc1Cl` [Compound 55, (R)-1-(2-chloropyridin-3-yl)ethyl (1-methyl-4-(5-(1-(trifluoromethyl)cyclopropane-1-carboxamido)pyridin-2-yl)-1H-1,2,3-triazol-5-yl)carbamate], 478 nM; with `C[C@@H](OC(=O)Nc1c(-c2ccc(NC(=O)[C@H]3C[C@H]3F)cn2)nnn1C)c1cccnc1Cl` [Compound 56, (R)-1-(2-chloropyridin-3-yl)ethyl (4-(5-((1R,2R)-2-fluorocyclopropane-1-carboxamido)pyridin-2-yl)-1-methyl-1H-1,2,3-triazol-5-yl)carbamate], 1140 nM. Under `C[C@@H](OC(=O)Nc1c(-c2ccc(NC(=O)C3COC3)cn2)nnn1C)c1cccnc1Cl` [Compound 57, (R)-1-(2-chloropyridin-3-yl)ethyl (1-methyl-4-(5-(oxetane-3-carboxamido)pyridin-2-yl)-1H-1,2,3-triazol-5-yl)carbamate] stands 339 nM.
